According to US20230210116A1, “HONEYBEE REPELLENT” (EARTH CORPORATION, priority 2020, published 2023):

What follows are compounds tested on honeybees (assay: Test for Confirmation of Honeybee Repelling Effect 1, 2, 3 (feeding station with 40% sugar water)). Details: 2 % strength.
Format: in vivo
Description: The following were used as the test samples for Examples: 2% by weight per volume ethanol solutions of octane (a-1), tetradecane (a-2), heptadecane (a-3), nonadecane (a-4), 2-acetylfuran (b-1), 5-methyl-2-furaldehyde (b-2), furfural (b-3), furaneol (c-1), 2-acetylpyrrole (d-1), 1-benzylpyrrole (d-2), 1-octanol (e-1), 1-dodecanol (e-2), and 1-octadecanol (e-3), respectively; and 2% by weight per volume aqueous solutions of furfuryl alcohol (b-4), sotolon (c-2), and α-angelicalactone (c-3), respectively.
The following were used as the test samples for Comparative Examples: 2% by weight per volume ethanol solutions of eicosane (carbon number 20, p-1), heneicosane (carbon number 21, p-2), 2-methyloctane (branched alkane, p-3), tributyl o-acetylcitrate (p-4), and 1-methylpyrrole (p-5), respectively; and 2% by weight per volume aqueous solutions of 2-methyltetrahydrofuran-3-one (p-6) and acetic acid (p-7), respectively.
Ethanol alone and water alone were used as samples for correction.
The cotton pads 13 were impregnated with 40% sugar water (80 g), after which disposable wooden chopsticks 15 (80 mm in length) were placed over the cotton pads on the lid surface as “landing areas,” for use as “test insect (honeybee) feeding station 1” 10.
A nest box of test insects (honeybees) (1 colony: approx. 6,000 bees) was placed at the center of a glass hothouse (bottom face: 5 m×10 m, height (highest part): 3 m, temperature: 25° C.), and the aforementioned “test insect (honeybee) feeding station 1” was installed at a location 2 meters away from the nest box.
After confirming that at least five test insects (honeybees) were feeding at the above “test insect (honeybee) feeding station 1” installed in the hothouse, test 1 was conducted to measure the “approaching count (Mz)” and “landing count (My)” and calculate the “landing rate (Mx).”
Next, the “test insect (honeybee) feeding station 1” installed in the hothouse was replaced with each “test insect (honeybee) feeding station 2” which was let to stand still for 5 minutes, after which test 2 was conducted to measure the “approaching count (Nz)” and “landing count (Ny)” and calculate the “landing rate (Nx).”
Approaching count: Total number of times a honeybee has approached within 25 cm of the cotton wools at the feeding station during 5 minutes
Landing count: Total number of honeybees that have remained for at least 1 second on the cotton pads at the feeding station during 5 minutes
Landing rate (%): (Landing count/Approaching count)×100
The “repelling rate Q” and “corrected repelling rate R” were calculated from the above “landing rates” using the calculation formula below. For the “repelling rate of sample for correction” used to calculate the “corrected repelling rate R,” the repelling rate of each of the samples for correction above (ethanol alone or water alone being a solvent for the active ingredient) was used.
Repelling rate Q (%)={(Mx)−(Nx)}/(Mx)×100
Corrected repelling rate R (%)={Repelling rate of test sample−Repelling rate of sample for correction}/{100−Repelling rate of sample for correction}×100
The following were used as the test samples for Examples: 0.1% by weight per volume ethanol solutions of 3-methyl-2-butanol (e-4), carvacrol (x-1), isoeugenol (x-2), cinnamyl alcohol (x-3), diacetone alcohol (x-4), α-amylcinnamaldehyde (x-5), 3-methyl-2-butenal (x-6), valeraldehyde (x-7), ethyl cinnamate (x-8), methyl cinnamate (x-9), ethyl isovalerate (x-10), isoamyl formate (x-11), 5-ethyl-2-methylpyridine (x-12), 2-(3-phenylpropyl)pyridine (x-13), 2,6-dimethylpyridine (x-14), ß-ionone (x-15), 2-acetylthiazole (x-16), butylamine (x-17), and citronella oil (x-18), respectively; and a 0.1% by weight per volume aqueous solution of (3-amino-3-carboxypropyl)dimethylsulfonium chloride (x-19).

| Compound | Corrected repelling rate R (%) |
| --- | --- |
| O=Cc1ccco1 [b-3, furfural] | 93.6% |

Same assay, conditions: Test 1; 2% by weight per volume solution

| Compound | repelling effect / repelled behaviors of honeybees (in words) |
| --- | --- |
| CC(=O)c1ccc[nH]1 [d-1, 2-acetylpyrrole] | excellent repelling effect |
| Cn1cccc1 [p-5, 1-methylpyrrole, reference compound] | not observed at all |
| CCCCCCC(C)C [p-3, 2-methyloctane, reference compound] | not observed at all |
| c1ccc(Cn2cccc2)cc1 [d-2, 1-benzylpyrrole] | excellent repelling effect |
| CCCCCCCCCCCCCCCCC [a-3, heptadecane] | excellent repelling effect |
| CCCCCCCCCCCCCCCCCCCC [p-1, eicosane, reference compound] | not observed at all |
| CCCCCCCCCCCCCCCCCCCCC [p-2, heneicosane, reference compound] | not observed at all |

Same assay, conditions: Test 1; honeybees; 2% by weight per volume solution, 5 mL sprayed (active ingredient 0.1 g)

| Compound | Corrected repelling rate R (%) |
| --- | --- |
| CC(=O)O [p-7, acetic acid, reference compound] | <0% |
| CC(=O)c1ccc[nH]1 [d-1, 2-acetylpyrrole] | 37.0% |
| Cn1cccc1 [p-5, 1-methylpyrrole, reference compound] | <0% |
| CCCCOC(=O)CC(CC(=O)OCCCC)(OC(C)=O)C(=O)OCCCC [p-4, tributyl o-acetylcitrate, reference compound] | <0% |
| CCCCCCC(C)C [p-3, 2-methyloctane, reference compound] | <0% |
| CCCCCCCCCCCCCCCCCCC [a-4, nonadecane] | 56.7% |
| Cc1ccc(C=O)o1 [b-2, 5-methyl-2-furaldehyde] | 55.3% |
| c1ccc(Cn2cccc2)cc1 [d-2, 1-benzylpyrrole] | 68.3% |
| CCCCCCCCCCCCCCCCCCO [e-3, 1-octadecanol] | 16.2% |
| CCCCCCCCCCCCCCCCC [a-3, heptadecane] | 28.2% |
| CCCCCCCCCCCCCCCCCCCC [p-1, eicosane, reference compound] | <0% |
| CCCCCCCCCCCCCCCCCCCCC [p-2, heneicosane, reference compound] | <0% |
| CCCCCCCCCCCCO [e-2, 1-dodecanol] | 84.6% |
| CCCCCCCCO [e-1, 1-octanol] | 58.3% |

Same assay, conditions: Test 2; honeybees; 0.1% by weight per volume solution, 5 mL (active ingredient 5 mg)

| Compound | Corrected repelling rate R (%) |
| --- | --- |
| CCCCCC(C=O)=Cc1ccccc1 [x-5, α-amylcinnamaldehyde] | 77.8% |
| CC=Cc1ccc(O)c(OC)c1 [x-2, isoeugenol] | 64.6% |
| CC(=O)CC(C)(C)O [x-4, diacetone alcohol] | 20.9% |
| CC(=O)c1nccs1 [x-16, 2-acetylthiazole] | 61.7% |

Same assay, conditions: Test 3; 0.1% by weight per volume solution, 5 mL

| Compound | Corrected repelling rate (%) Honeybees |
| --- | --- |
| Cc1cccc2c(C)cccc12 [y-89, 1,5-dimethylnaphthalene] | 88.8% |
| Cc1ccc2ncccc2c1 [y-80, 6-methylquinoline] | 74.7% |
| c1ccc2scnc2c1 [y-78, benzothiazole] | 87.7% |
| CCC=O [y-11, propionaldehyde] | 64.0% |
| CN1CCCC1 [y-92, 1-methylpyrrolidine] | 25.9% |
| CCCCCCCCCCCCCCC(=O)OCC [y-40, ethyl pentadecanoate] | 77.6% |
| CC(=O)OC(C)(C)C1CC=C(C)CC1 (stereo not drawn) [y-29, terpinyl acetate] | 81.2% |
| (−)-menthyl succinate [y-32] | 57.7% |
| CCCCCCCC(=O)OCCCC [y-36, butyl n-octanoate] | 52.0% |
| CC(C)COC(=O)Cc1ccccc1 [y-21, isobutyl phenylacetate] | 80.5% |
| O=C1CCCO1 [y-64, γ-butyrolactone] | 27.5% |
| C/C=C(\C)C(=O)OC/C=C(\C)CCC=C(C)C [y-31, geranyl tiglate] | 70.3% |
| CCC(=O)OCc1ccccc1 [y-23, benzyl propionate] | 26.0% |
| Cc1cnccn1 [y-58, 2-methylpyrazine] | 55.0% |
| CCCCOC(=O)CCC [y-35, butyl butyrate] | 61.7% |
| COC[C@@H]1CCCN1 [y-93, (S)-2-(methoxymethyl)pyrrolidine] | 66.9% |
| CCCCCCCC=O [y-12, n-octanal] | 96.3% |
| Cc1cnc(C)c(C)n1 [y-55, 2,3,5-trimethylpyrazine] | 80.6% |
| CCc1nccnc1C [y-59, 2-ethyl-3-methylpyrazine] | 72.8% |

| Compound | Corrected repelling rate (%) Honeybees |
| --- | --- |
| O=C(O)c1ccc(O)cc1 [y-77, 4-hydroxybenzoic acid] | 80.1% |
| Cc1cncc(C)n1 [y-60, 2,6-dimethylpyrazine] | 35.4% |
| Sc1ccc2ccccc2c1 [y-88, 2-naphthalenethiol] | 74.6% |
| CCCCCC(=O)O [y-72, hexanoic acid] | 89.4% |
| CC(=O)OCCC(C)CCC=C(C)C (stereo not drawn) [y-30, citronellyl acetate] | 91.1% |
| CC(C)CO.CC(C)CO [e-5, 2-methyl-1-propanol (isobutanol)] | 88.2% |
| CC(=O)/C=C/C1C(C)=CCCC1(C)C (stereo not drawn) [y-71, α-ionone] | 90.0% |
| CC(=O)OCc1ccccc1 [y-19, benzyl acetate] | 83.2% |
| Cc1cccc2nccnc12 [y-83, 5-methylquinoxaline] | 78.7% |
| CNc1ccccc1C(=O)OC [y-34, methyl N-methylanthranilate] | 78.6% |
| CCCCCCCCCC(=O)OCC [y-38, ethyl decanoate] | 58.7% |
| CCc1nccnc1CC [y-56, 2,3-diethylpyrazine] | 57.0% |
| CC(=O)OC1CC(C)CCC1C(C)C (stereo not drawn) [y-26, menthyl acetate] | 76.4% |
| CC(C)CCO [e-6, 3-methyl-1-butanol] | 65.4% |
| CCCC=O [y-15, butylaldehyde] | 51.0% |
| CC(=O)c1ccc2ccccc2c1 [y-67, 2′-acetonaphtone] | 91.0% |
| CC(=O)c1ccc(C)cc1 [y-68, 4-methylacetophenone] | 84.3% |
| CCCCCCCCCCCCCCCCCC(=O)O [y-74, stearic acid] | 33.7% |
| O=C(O)c1ccnc2ccccc12 [y-82, 4-quinolinecarboxylic acid] | 55.5% |

Same assay, conditions: Test 3; 2.0% by weight per volume solution, 5 mL

| Compound | Corrected repelling rate (%) Honeybees |
| --- | --- |
| c1cnc2c(n1)CCCC2 [y-86, 5,6,7,8-tetrahydroquinoxaline] | 73.2% |
| CCC(=O)O [p-8, propionic acid, reference compound] | <0% |
| CC(CC=O)CCCC(C)(C)O (stereo not drawn) [y-9, hydroxycitronellal] | 92.8% |
| CCCCSCCCC [y-94, butyl sulfide] | 17.2% |
| CC(C)CCOC(=O)CC(C)C [y-52, isoamyl isovalerate] | 23.5% |
| CCOC(=O)Cc1ccccc1 [y-24, ethyl phenylacetate] | 55.5% |
| C=Cc1ccc(OC)cc1 [y-90, 4-methoxystyrene] | 95.6% |
| CC(=O)OCCC(C)C [y-53, isoamyl acetate] | 23.0% |
| CSCCCO [y-3, methionol] | 84.7% |
| CCCCCCCC(=O)OCC [y-48, ethyl octanoate] | 94.1% |
| CCc1cccnc1 [y-62, 3-ethylpyridine] | 58.3% |
